In publication PMC9632963, “Preclinical characterization and phase I clinical trial of CT053PTSA targets MET, AXL, and VEGFR2 in patients with advanced solid tumors” (Frontiers in Immunology, 2022):
Read-outs that look alike come from different tables or passages of the source.

Tests used:
[1] = Phase I trial: clinical pharmacokinetics in plasma; format: in vivo, human; settings: for AUC(0-inf) / Cmax / AUC(0-t) / AUC / half-life / Tmax / Vd/F: human, plasma; for AUC(0-t): read-out: AUC0-168; for AUC: read-out: AUC0-τ; for Vd/F: read-out: Vz/F
Protocol: A clinical pharmacokinetic study of CT053PTSA was performed for both single doses and multiple doses. Blood samples were collected from each subject at prespecified times before and after single-dose administration (systemic blood samples: before treatment and 0.5, 1, 2, 3, 4, 5, 8, 12, 24, 36, 48, 72, 120 and 168 hours after treatment) and during multiple dosing (cycle 1 before treatment on Days 8, 15 and 22, as well as systemic blood samples on Day 28). […]
Statistical analysis of CT053-treated tumors versus vehicle-treated tumors or versus nontreated tumors was performed by repeated-measures ANOVA. The data from the tumor xenograft models were expressed as the means ± standard error of the mean (SEM) and were plotted as a function of time. Noncompartmental pharmacokinetic analysis was performed using Phoenix WinNonlin Version 6.2.1 (Certara Inc., NJ, USA). Demographics and laboratory results of all the subjects were summarized using descriptive statistics. The pharmacokinetic parameters Tmax and T1/2 were shown as the median (min, max) and mean ± SD, respectively. A two-sided P < 0.05 was considered to indicate statistical significance. Statistical analysis was performed by using GraphPad Prism 5.0 (GraphPad Prism, RRID : SCR_002798) and SPSS software version 19.0 (SPSS, RRID : SCR_002865).

[2] = test system: circulating tumor DNA (ctDNA); assay: Circulating tumor DNA sequencing in plasma of one NSCLC patient; format: in vivo, human
Protocol: Moreover, we analyzed the patient who achieved SD for 24 weeks. The patient was a person with EGFR exon 19-21 wild type, ALK negative non-small cell lung cancer (NSCLC). They had failed 1 line of platinum-based chemotherapy with a PFS of 27 months. […] The plasma of the patient was prospectively collection on the first day of cycle 1, 3, 6, whole exon sequencing of 416 genes was performed to assess circulating tumor DNA (ctDNA) with Illumina platform. […] The patient received 6-time tumor assessments, the response was classified as SD ( Figure 5E ), and the nontarget lesions remained unchanged ( Figure 5F ). However, the patient experienced tumor progression after 6 cycles of CT053PTSA administration, and which point, the target lesion enlarged.

[3] = oral, 15 mg, Multiple doses day 28, 15 mg, n=1
[4] = oral, 15 mg, Single dose day 1, 15 mg, n=1
[5] = oral, 30 mg, Multiple doses day 28, 30 mg, n=1
[6] = oral, 30 mg, Single dose day 1, 30 mg, n=1
[7] = oral, 60 mg, Multiple doses day 28, 60 mg, n=3, Geometric Mean (CV%)
[8] = oral, 60 mg, Single dose day 1, 60 mg, n=5, Geometric Mean (CV%)
[9] = oral, 100 mg, Multiple doses day 28, 100 mg, n=5, Geometric Mean (CV%)
[10] = oral, 100 mg, Single dose day 1, 100 mg, n=7, Geometric Mean (CV%)
[11] = oral, 150 mg, Multiple doses day 28, 150 mg, n=1
[12] = oral, 150 mg, Single dose day 1, 150 mg, n=4, Geometric Mean (CV%)

## Cc1c(C(=O)Nc2ccc(Oc3ccnc4cc(OCC(C)(C)O)ccc34)c(F)c2)c(=O)n(-c2ccccc2)n1C [CT053PTSA]
[1]; Multiple doses day 28, 15 mg, n=1
  Cl/F: 1580 mL/h
[1]; Multiple doses day 28, 30 mg, n=1
  Cl/F: 1090 mL/h
[1]; Multiple doses day 28, 150 mg, n=1
  Cl/F: 4470 mL/h
[1]; Single dose day 1, 15 mg, n=1
  Cl/F: 2420 mL/h
[1]; Single dose day 1, 30 mg, n=1
  Cl/F: 1000 mL/h
[1]; daily dosing
  steady state reached: ≤ 8 days
[1]; [3]
  AUC(0-inf): 24000 ng·h/mL
  Cmax: 598 ng/mL
  AUC(0-t): 23700 ng·h/mL
  AUC: 9510 ng·h/mL
  Vd/F: 63.5 L
[1]; oral, 15 mg, Multiple doses day 28, 15 mg, n=1, read-out: T1/2 (converted)
  half-life: 27.9 h
[1]; oral, 15 mg, Multiple doses day 28, 15 mg, n=1, read-out: Tmax
  Tmax: 2 h
[1]; [4]
  AUC(0-inf): 6190 ng·h/mL
  Cmax: 345 ng/mL
  AUC(0-t): 6120 ng·h/mL
  AUC: 3760 ng·h/mL
  Vd/F: 110 L
[1]; oral, 15 mg, Single dose day 1, 15 mg, n=1, read-out: T1/2 (converted)
  half-life: 31.4 h
[1]; oral, 15 mg, Single dose day 1, 15 mg, n=1, read-out: Tmax
  Tmax: 3 h
[1]; [5]
  AUC(0-inf): 84100 ng·h/mL
  Cmax: 1790 ng/mL
  AUC(0-t): 81200 ng·h/mL
  AUC: 27600 ng·h/mL
  Vd/F: 60.2 L
[1]; oral, 30 mg, Multiple doses day 28, 30 mg, n=1, read-out: T1/2 (converted)
  half-life: 38.4 h
[1]; oral, 30 mg, Multiple doses day 28, 30 mg, n=1, read-out: Tmax
  Tmax: 2 h
[1]; [6]
  AUC(0-inf): 29900 ng·h/mL
  Cmax: 796 ng/mL
  AUC(0-t): 29100 ng·h/mL
  AUC: 12300 ng·h/mL
  Vd/F: 46.2 L
[1]; oral, 30 mg, Single dose day 1, 30 mg, n=1, read-out: T1/2 (converted)
  half-life: 31.9 h
[1]; oral, 30 mg, Single dose day 1, 30 mg, n=1, read-out: Tmax
  Tmax: 3 h
[1]; [7]
  AUC(0-inf): 91100 ng·h/mL
  Cmax: 2720 ng/mL
  AUC(0-t): 89700 ng·h/mL
  AUC: 37000 ng·h/mL
  Vd/F: 60.5 L
[1]; oral, 60 mg, Multiple doses day 28, 60 mg, n=3, Mean ± SD, read-out: T1/2 (converted)
  half-life: 26.1 ± 4.5 h
[1]; oral, 60 mg, Multiple doses day 28, 60 mg, n=3, Median (Min, Max), read-out: Tmax
  Tmax: 2 h
[1]; [8]
  AUC(0-inf): 29200 ng·h/mL
  Cmax: 1340 ng/mL
  AUC(0-t): 28700 ng·h/mL
  AUC: 13700 ng·h/mL
  Vd/F: 71.8 L
[1]; oral, 60 mg, Single dose day 1, 60 mg, n=5, Mean ± SD, read-out: T1/2 (converted)
  half-life: 24.7 ± 5.7 h
[1]; oral, 60 mg, Single dose day 1, 60 mg, n=5, Median (Min, Max), read-out: Tmax
  Tmax: 2 h
[1]; [9]
  AUC(0-inf): 156000 ng·h/mL
  Cmax: 4330 ng/mL
  AUC(0-t): 146000 ng·h/mL
  AUC: 57300 ng·h/mL
  Vd/F: 90.9 L
[1]; oral, 100 mg, Multiple doses day 28, 100 mg, n=5, Mean ± SD, read-out: T1/2 (converted)
  half-life: 38.2 ± 14.3 h
[1]; oral, 100 mg, Multiple doses day 28, 100 mg, n=5, Median (Min, Max), read-out: Tmax
  Tmax: 2 h
[1]; [10]
  AUC(0-inf): 57700 ng·h/mL
  Cmax: 1890 ng/mL
  AUC(0-t): 56000 ng·h/mL
  AUC: 24400 ng·h/mL
  Vd/F: 79.8 L
[1]; oral, 100 mg, Single dose day 1, 100 mg, n=7, Mean ± SD, read-out: T1/2 (converted)
  half-life: 32.8 ± 8.5 h
[1]; oral, 100 mg, Single dose day 1, 100 mg, n=7, Median (Min, Max), read-out: Tmax
  Tmax: 2 h
[1]; [11]
  AUC(0-inf): 50600 ng·h/mL
  Cmax: 2930 ng/mL
  AUC(0-t): 50500 ng·h/mL
  AUC: 33600 ng·h/mL
  Vd/F: 88.7 L
[1]; oral, 150 mg, Multiple doses day 28, 150 mg, n=1, read-out: T1/2 (converted)
  half-life: 13.8 h
[1]; oral, 150 mg, Multiple doses day 28, 150 mg, n=1, read-out: Tmax
  Tmax: 2 h
[1]; [12]
  AUC(0-inf): 68500 ng·h/mL
  Cmax: 2970 ng/mL
  AUC(0-t): 65500 ng·h/mL
  AUC: 30500 ng·h/mL
  Vd/F: 99.8 L
[1]; oral, 150 mg, Single dose day 1, 150 mg, n=4, Mean ± SD, read-out: T1/2 (converted)
  half-life: 33.9 ± 13.7 h
[1]; oral, 150 mg, Single dose day 1, 150 mg, n=4, Median (Min, Max), read-out: Tmax
  Tmax: 2.5 h
[1]; po, multiple doses, oral, read-out: median Tmax
  Tmax: 2 h
[1]; po, multiple oral doses, read-out: mean half-life, range over cohorts
  half-life: 13.8 to 38.4 h
[1]; po, single dose, oral, read-out: median Tmax
  Tmax: 2 to 3 h
[1]; po, single oral dose, read-out: mean half-life, range over cohorts
  half-life: 24.7 to 33.9 h
[2]; Cycle 1, 60 mg
  ctDNA APC p.E520X (c. G1558T): 0%
  ctDNA AXL p. A79T (c. G235A): 0%
  ctDNA BRCA1 p.E344X (c. G1030T): 0.32%
  ctDNA EGFR p. F712Y (c. T2135A): 0.12%
  ctDNA FLT3 p.p893L (c.C2678T): 0%
  ctDNA FLT4 p.D998V (c.A2993T): 0%
  ctDNA FP300 p.Q2332X (c.C6994T): 0.19%
  ctDNA PALB2 p.C800X (c.T2400A): 0%
[2]; Cycle 3, 60 mg
  ctDNA APC p.E520X (c. G1558T): 0%
  ctDNA AXL p. A79T (c. G235A): 0%
  ctDNA BRCA1 p.E344X (c. G1030T): 0.12%
  ctDNA EGFR p. F712Y (c. T2135A): 0%
  ctDNA FLT3 p.p893L (c.C2678T): 0%
  ctDNA FLT4 p.D998V (c.A2993T): 0%
  ctDNA FP300 p.Q2332X (c.C6994T): 0.21%
  ctDNA PALB2 p.C800X (c.T2400A): 0%
[2]; Cycle 6, 60 mg
  ctDNA APC p.E520X (c. G1558T): 0%
  ctDNA AXL p. A79T (c. G235A): 0%
  ctDNA BRCA1 p.E344X (c. G1030T): 0%
  ctDNA EGFR p. F712Y (c. T2135A): 0%
  ctDNA FLT3 p.p893L (c.C2678T): 0%
  ctDNA FLT4 p.D998V (c.A2993T): 0%
  ctDNA FP300 p.Q2332X (c.C6994T): 0%
  ctDNA PALB2 p.C800X (c.T2400A): 0%
